Read-outs that look alike come from different tables or passages of the source.
System: 280 human cancer cell lines
Experiment: OncoPanel cell proliferation assay (10-day)
Type: cell-based
Settings: Homo sapiens; for EC50: read-out: Cell Count EC50; for GI50: read-out: Cell Count GI50; for IC50: read-out: Cell Count IC50
[1] = Caov-3, CaOV3, Female GU - Ovary
[2] = ChaGo-K-1, ChaGoK1, Lung - NSCLC
[3] = D341 Med, CNS - Medulloblastoma
[4] = Detroit 562, Detroit 562, Head and Neck
[5] = DoTc2-4510, DoTc2 4510, Lymphoma
[6] = G292, G-292, clone A141B1, Soft Tissue - Osteosarcoma
[7] = HEL 92.1.7, HEL-92-1-7, Leukemia
[8] = HOS, Soft Tissue - Osteosarcoma
[9] = HT-1080, HT-1080, Soft Tissue - Sarcoma
[10] = HUH-6-clone5, HUH-6 Clone 5, Liver
[11] = Hs 821.T, Soft Tissue - Sarcoma
[12] = Hs 888.Sk, Soft Tissue - Osteosarcoma

CC(C)=CCC[C@H](C)[C@@H]1CC[C@@H](C)c2c1cc(C)c(O)c2O [Compound 4, 7,8-dihydroxyserrulat-14-ene]
EC50 [1]: 10.2 µM | GI50 [1]: 10.2 µM | IC50 [1]: 10.3 µM | EC50 (Capan-2, Capan-2, Pancreas): 24.8 µM | GI50 (Capan-2, Capan-2, Pancreas): 24.7 µM | IC50 (Capan-2, Capan-2, Pancreas): 24.8 µM | EC50 [2]: 8.92 µM | GI50 [2]: 8.82 µM | IC50 [2]: 8.92 µM | EC50 [3]: 8.57 µM | GI50 [3]: 8.4 µM | IC50 [3]: 8.57 µM | EC50 (DB, Lymphoma): 3.85 µM | GI50 (DB, Lymphoma): 3.84 µM | IC50 (DB, Lymphoma): 3.85 µM | EC50 (DBTRG-05MG, CNS - Glioma): 17.6 µM | GI50 (DBTRG-05MG, CNS - Glioma): 17.4 µM | IC50 (DBTRG-05MG, CNS - Glioma): 17.6 µM | EC50 (DK-MG, CNS - Glioma): 17.2 µM | GI50 (DK-MG, CNS - Glioma): 16.4 µM | IC50 (DK-MG, CNS - Glioma): 17.2 µM | EC50 (DLD-1, DLD-1, Colon): 15.7 µM | GI50 (DLD-1, DLD-1, Colon): 15.7 µM | IC50 (DLD-1, DLD-1, Colon): 15.7 µM | EC50 (DMS-53, DMS53, Lung - SCLC): 8.95 µM | GI50 (DMS-53, DMS53, Lung - SCLC): 8.6 µM | IC50 (DMS-53, DMS53, Lung - SCLC): 8.95 µM | EC50 (DMS-114, DMS114, Lung - SCLC): 11.5 µM | GI50 (DMS-114, DMS114, Lung - SCLC): 11.4 µM | IC50 (DMS-114, DMS114, Lung - SCLC): 11.6 µM | EC50 (DOHH-2, DOHH-2, Lymphoma): 2.24 µM | GI50 (DOHH-2, DOHH-2, Lymphoma): 2.24 µM | IC50 (DOHH-2, DOHH-2, Lymphoma): 2.24 µM | EC50 (DU-145, DU145, Prostate): 18.1 µM | GI50 (DU-145, DU145, Prostate): 18.1 µM | IC50 (DU-145, DU145, Prostate): 18.1 µM | EC50 (Daoy, CNS - Medulloblastoma): 3.19 µM | GI50 (Daoy, CNS - Medulloblastoma): 3.19 µM | IC50 (Daoy, CNS - Medulloblastoma): 3.19 µM | EC50 (Daudi, Lymphoma): 2.28 µM | GI50 (Daudi, Lymphoma): 2.28 µM | IC50 (Daudi, Lymphoma): 2.28 µM | EC50 [4]: 25 µM | GI50 [4]: 25 µM | IC50 [4]: 25 µM | EC50 [5]: 9.23 µM | GI50 [5]: 9.09 µM | IC50 [5]: 9.23 µM | EC50 (EB2, Lymphoma): 8.35 µM | GI50 (EB2, Lymphoma): 8.32 µM | IC50 (EB2, Lymphoma): 8.38 µM | EC50 (EB-3, Lymphoma): 3.93 µM | GI50 (EB-3, Lymphoma): 3.93 µM | IC50 (EB-3, Lymphoma): 3.93 µM | EC50 (EFM-19, EFM-19, Breast): 11.9 µM | GI50 (EFM-19, EFM-19, Breast): 11.3 µM | IC50 (EFM-19, EFM-19, Breast): 11.9 µM | EC50 (EM-2, Leukemia): 3.99 µM | GI50 (EM-2, Leukemia): 4 µM | IC50 (EM-2, Leukemia): 4 µM | EC50 (FaDu, Head and Neck): 8.28 µM | GI50 (FaDu, Head and Neck): 8.28 µM | IC50 (FaDu, Head and Neck): 8.28 µM | EC50 [6]: 6.23 µM | GI50 [6]: 6.07 µM | IC50 [6]: 6.25 µM | EC50 (G-361, G-361, Skin (Melanoma)): 13.8 µM | GI50 (G-361, G-361, Skin (Melanoma)): 13.8 µM | IC50 (G-361, G-361, Skin (Melanoma)): 13.9 µM | EC50 (G-401, G-401, Kidney): 8.08 µM | GI50 (G-401, G-401, Kidney): 8.05 µM | IC50 (G-401, G-401, Kidney): 8.08 µM | EC50 (GA-10, GA-10, Lymphoma): 1.23 µM | GI50 (GA-10, GA-10, Lymphoma): 1.23 µM | IC50 (GA-10, GA-10, Lymphoma): 1.23 µM | EC50 (H4, CNS - Glioma): 13 µM | GI50 (H4, CNS - Glioma): 13 µM | IC50 (H4, CNS - Glioma): 13 µM | EC50 (HCT-15, HCT-15, Colon): 13.4 µM | GI50 (HCT-15, HCT-15, Colon): 13.4 µM | IC50 (HCT-15, HCT-15, Colon): 13.4 µM | EC50 (HCT-116, HCT-116, Colon): 10.3 µM | GI50 (HCT-116, HCT-116, Colon): 10.3 µM | IC50 (HCT-116, HCT-116, Colon): 10.3 µM | EC50 (HEC-1-A, Female GU - Uterus): 12.3 µM | GI50 (HEC-1-A, Female GU - Uterus): 12.2 µM | IC50 (HEC-1-A, Female GU - Uterus): 12.3 µM | EC50 [7]: 4.05 µM | GI50 [7]: 4.05 µM | IC50 [7]: 4.05 µM | EC50 (HLE, Liver): 7.24 µM | GI50 (HLE, Liver): 7.15 µM | IC50 (HLE, Liver): 7.24 µM | EC50 (HLF, Liver): 8.72 µM | GI50 (HLF, Liver): 8.7 µM | IC50 (HLF, Liver): 8.74 µM | EC50 (HMCB, Skin (Melanoma)): 9.49 µM | GI50 (HMCB, Skin (Melanoma)): 9.38 µM | IC50 (HMCB, Skin (Melanoma)): 9.49 µM | EC50 [8]: 3.08 µM | GI50 [8]: 3.08 µM | IC50 [8]: 3.08 µM | EC50 (HPAF-II, Pancreas): 12.4 µM | GI50 (HPAF-II, Pancreas): 12.4 µM | IC50 (HPAF-II, Pancreas): 12.5 µM | EC50 (HT1197, HT-1197, Bladder): 15.6 µM | GI50 (HT1197, HT-1197, Bladder): 15.2 µM | IC50 (HT1197, HT-1197, Bladder): 15.6 µM | EC50 (HT, Lymphoma): 4.49 µM | GI50 (HT, Lymphoma): 4.46 µM | IC50 (HT, Lymphoma): 4.49 µM | EC50 (HT-3, Female GU - Cervix): 14.5 µM | GI50 (HT-3, Female GU - Cervix): 14.3 µM | IC50 (HT-3, Female GU - Cervix): 14.5 µM | EC50 (HT-29, HT-29, Colon): 17 µM | GI50 (HT-29, HT-29, Colon): 17 µM | IC50 (HT-29, HT-29, Colon): 17 µM | EC50 [9]: 4.42 µM | GI50 [9]: 4.42 µM | IC50 [9]: 4.42 µM | EC50 (HT-1376, HT1376, Bladder): 14.1 µM | GI50 (HT-1376, HT1376, Bladder): 13.8 µM | IC50 (HT-1376, HT1376, Bladder): 14.1 µM | EC50 [10]: 9.63 µM | GI50 [10]: 9.46 µM | IC50 [10]: 9.63 µM | EC50 (HeLa, Female GU - Cervix): 21.1 µM | GI50 (HeLa, Female GU - Cervix): 21.1 µM | IC50 (HeLa, Female GU - Cervix): 21.1 µM | EC50 (HepG2, HepG2, Liver): 25.6 µM | GI50 (HepG2, HepG2, Liver): 25.6 µM | IC50 (HepG2, HepG2, Liver): 25.7 µM | EC50 (Hs 229.T, Lung - NSCLC): 25.9 µM | GI50 (Hs 229.T, Lung - NSCLC): 25.2 µM | IC50 (Hs 229.T, Lung - NSCLC): 26.3 µM | EC50 (Hs 294T, Skin (Melanoma)): 8.33 µM | GI50 (Hs 294T, Skin (Melanoma)): 8.23 µM | IC50 (Hs 294T, Skin (Melanoma)): 8.33 µM | EC50 (Hs 445, Hs 445, Lymphoma): 5.8 µM | GI50 (Hs 445, Hs 445, Lymphoma): 5.74 µM | IC50 (Hs 445, Hs 445, Lymphoma): 5.8 µM | EC50 (Hs 611.T, Lymphoma): 5.11 µM | GI50 (Hs 611.T, Lymphoma): 5.05 µM | IC50 (Hs 611.T, Lymphoma): 5.11 µM | EC50 (Hs 683, Hs 683, CNS - Glioma): 24.5 µM | GI50 (Hs 683, Hs 683, CNS - Glioma): 24.3 µM | IC50 (Hs 683, Hs 683, CNS - Glioma): 24.6 µM | EC50 (Hs 688(A).T, Skin (Melanoma)): 7.43 µM | GI50 (Hs 688(A).T, Skin (Melanoma)): 6.88 µM | IC50 (Hs 688(A).T, Skin (Melanoma)): 7.68 µM | EC50 (Hs746T, HS 746T, Stomach): 20 µM | GI50 (Hs746T, HS 746T, Stomach): 17.1 µM | IC50 (Hs746T, HS 746T, Stomach): 20 µM | EC50 (Hs766T, Hs 766T, Pancreas): 9.34 µM | GI50 (Hs766T, Hs 766T, Pancreas): 9.08 µM | IC50 (Hs766T, Hs 766T, Pancreas): 9.34 µM | EC50 [11]: 12.6 µM | GI50 [11]: 9.99 µM | IC50 [11]: 12.9 µM | EC50 [12]: 12.3 µM | GI50 [12]: 12.1 µM | IC50 [12]: 12.7 µM | EC50 (Hs 934.T, Skin (Melanoma)): 11.1 µM | GI50 (Hs 934.T, Skin (Melanoma)): 10.2 µM | IC50 (Hs 934.T, Skin (Melanoma)): 11.6 µM | EC50 (Hs 936.T(C1), Skin (Melanoma)): 9.1 µM | GI50 (Hs 936.T(C1), Skin (Melanoma)): 10.2 µM | IC50 (Hs 936.T(C1), Skin (Melanoma)): 10.4 µM | EC50 (Hs-578T, Hs 578T, Breast): 15 µM | GI50 (Hs-578T, Hs 578T, Breast): 14.9 µM | IC50 (Hs-578T, Hs 578T, Breast): 15 µM | EC50 (HuCCT-1, HuCCT1, Liver): 24.8 µM | GI50 (HuCCT-1, HuCCT1, Liver): 24.8 µM | IC50 (HuCCT-1, HuCCT1, Liver): 24.8 µM | EC50 (HuP-T4, HuP-T4, Pancreas): 13.7 µM | GI50 (HuP-T4, HuP-T4, Pancreas): 13.6 µM | IC50 (HuP-T4, HuP-T4, Pancreas): 13.7 µM | EC50 (J82, Bladder): 6.22 µM | GI50 (J82, Bladder): 6.09 µM | IC50 (J82, Bladder): 6.22 µM | EC50 (JAR, Placenta): 6.53 µM | GI50 (JAR, Placenta): 6.49 µM | IC50 (JAR, Placenta): 6.53 µM | EC50 (JEG-3, JEG-3, Placenta): 6.5 µM | GI50 (JEG-3, JEG-3, Placenta): 6.48 µM | IC50 (JEG-3, JEG-3, Placenta): 6.51 µM | EC50 (JIYOYE, Lymphoma): 3.55 µM | GI50 (JIYOYE, Lymphoma): 3.55 µM | IC50 (JIYOYE, Lymphoma): 3.55 µM | EC50 (JeKo-1, JeKo-1, Lymphoma): 3.91 µM | GI50 (JeKo-1, JeKo-1, Lymphoma): 3.91 µM | IC50 (JeKo-1, JeKo-1, Lymphoma): 3.91 µM | EC50 (Jurkat, Leukemia): 3.59 µM | GI50 (Jurkat, Leukemia): 3.58 µM | IC50 (Jurkat, Leukemia): 3.59 µM | EC50 (K562, K562, Leukemia): 12.2 µM | GI50 (K562, K562, Leukemia): 12.2 µM | IC50 (K562, K562, Leukemia): 12.2 µM | EC50 (KATO III, Stomach): 10.9 µM | GI50 (KATO III, Stomach): 11.1 µM | IC50 (KATO III, Stomach): 11.1 µM | EC50 (KHOS-240S, Soft Tissue - Osteosarcoma): 4.96 µM

— patent US11331299B2, “Medicinal use of serrulatane diterpenes” (The University of Sydney, priority 2016, dated 2022)
